23 compounds from patent publication US20210253562A1, “ACYLSUFONAMIDE COMPOUNDS USEFUL AS EP3 RECEPTOR ANTAGONISTS” (Janssen Pharmaceutica NV, priority 2018, published 2021) can be followed below.

Like-named read-outs stand apart in the source and are kept apart here.

The target in assay [1] is T1, EP3 membrane (EP3 receptor) (Homo sapiens, UniProt P43115).
T1 construct: purchased Millipore HTS092M
T1 sequence (P43115 1-390): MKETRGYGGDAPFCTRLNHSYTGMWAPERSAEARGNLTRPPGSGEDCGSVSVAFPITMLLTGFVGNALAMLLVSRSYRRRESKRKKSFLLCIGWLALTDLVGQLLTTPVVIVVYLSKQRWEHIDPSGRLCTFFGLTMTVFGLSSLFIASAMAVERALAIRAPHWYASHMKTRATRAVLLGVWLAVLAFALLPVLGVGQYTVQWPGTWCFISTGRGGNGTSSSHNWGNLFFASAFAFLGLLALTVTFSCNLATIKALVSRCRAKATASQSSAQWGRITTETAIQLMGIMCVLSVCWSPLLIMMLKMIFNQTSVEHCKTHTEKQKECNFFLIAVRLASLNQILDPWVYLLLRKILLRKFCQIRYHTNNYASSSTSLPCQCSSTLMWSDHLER
The assay can be described thus: [3H]-PGE2 binding; EP3 competition binding (SPA). The method in brief: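 SPA competition at room temperature, 2 h: EP3 membranes 2 μg/well, 2 nM [3H]-PGE2, 0.1% DMSO, in Tris/MgCl2/EDTA buffer pH 7.4. Compounds in 1:3 serial dilution; scintillation read; Ki by one-site nonlinear fit.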

Assay [2] addresses T2, CHO cells over-expressing the EP3 receptor (Homo sapiens, UniProt P43115).
T2 construct: expressed in transfected cells; host or cells: CHO cells
T2 sequence (P43115 1-390): T1 sequence (P43115 1-390)
The assay is described as follows: CHO cell cAMP assay; EP3 cAMP antagonist dose response (sulprostone reference), HTRF. The assay is classed as cell-based. The note with it: sulprostone 700 nM (EC80) and FSK 2 μM (EC70); read-out: CHO_cAMP IC50. The method in brief: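 EP3-overexpressing CHO cells pre-incubated with test compound, then stimulated 30 min at 37 °C with FSK (2 μM, EC70) plus sulprostone (700 nM, EC80); antagonism seen as restored cAMP. cAMP measured by HTRF 665/615 ratio, converted via on-plate standard curve. IC50 from Hill fit of 11-point dosing.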

Broadly, the Ki is a measure of affinity in units of concentration, obtained from inhibition or displacement. Read a low Ki as higher affinity. For orientation: IC50 means the midpoint of a concentration-inhibition curve. Turning to `O=C(NC/C=C1\CCCc2cnn(-c3cccc(Br)c3)c21)NS(=O)(=O)c1cc(Cl)c(Cl)s1` [Compound #77, (E)-N-((2-(1-(3-bromophenyl)-1,4,5,6-tetrahydro-7H-indazol-7-ylidene)ethyl)carbamoyl)-4,5-dichlorothiophene-2-sulfonamide], the inhibition constant (Ki) in assay [1] came to 12 nM. Also, the IC50 in assay [2] was found to be 258 nM.
Take `O=C(NC/C=C1\CCCc2cnn(Cc3ccc(Cl)cc3Cl)c21)NS(=O)(=O)c1cccs1` [Compound #10, (E)-N-((2-(1-(2,4-dichlorobenzyl)-1,4,5,6-tetrahydro-7H-indazol-7-ylidene)ethyl)carbamoyl)thiophene-2-sulfonamide]: the Ki in assay [1] was found to be 15 nM. The half-maximal inhibitory concentration (IC50) in assay [2] came out at 28 nM.
Consider `CN(C/C(F)=C1\COCc2cnn(Cc3ccc(Cl)cc3Cl)c21)C(=O)NS(=O)(=O)c1cc(Cl)c(Cl)s1` [Compound #74, (E)-4,5-dichloro-N-((2-(1-(2,4-dichlorobenzyl)-1,4-dihydropyrano[4,3-c]pyrazol-7(6H)-ylidene)-2-fluoroethyl)(methyl)carbamoyl)thiophene-2-sulfonamide], for which the Ki in assay [1] turned out to be 35 nM. Further, the IC50 in assay [2] was found to be 31 nM.
The like results for `CN(C/C=C1\COCc2cnn(Cc3ccc(Cl)cc3Cl)c21)C(=O)NS(=O)(=O)c1cc(Cl)c(Cl)s1` [Compound #55, (Z)-4,5-dichloro-N-((2-(1-(2,4-dichlorobenzyl)-1,4-dihydropyrano[4,3-c]pyrazol-7(6H)-ylidene)ethyl)(methyl)carbamoyl)thiophene-2-sulfonamide] were, in that order, 3 nM and 11 nM.
On to `O=C(NS(=O)(=O)c1cc(Cl)c(Cl)s1)OC/C=C1\CCCc2cnn(Cc3ccc(Cl)cc3Cl)c21` [Compound #5, (E)-2-(1-(2,4-dichlorobenzyl)-1,4,5,6-tetrahydro-7H-indazol-7-ylidene)ethyl ((4,5-dichlorothiophen-2-yl)sulfonyl)carbamate], for which affinity in assay [1] was put at a Ki of 1 nM. Besides, the IC50 in assay [2] came to 5 nM.
Take `O=C(NC/C(F)=C1\COCc2[nH]nc(Cc3ccc(Cl)cc3Cl)c21)NS(=O)(=O)c1cc(Cl)c(Cl)s1` [Compound #147, (E)-4,5-dichloro-N-((2-(3-(2,4-dichlorobenzyl)-1,7-dihydropyrano[3,4-c]pyrazol-4(5H)-ylidene)-2-fluoroethyl)carbamoyl)thiophene-2-sulfonamide]: in assay [1] (unit nM), the Ki was 0.4 nM. In addition, in assay [2], the IC50 was found to be 5 nM.
In the case of `O=C(NC/C(F)=C1/COCc2cnn(Cc3ccc(Cl)cc3Cl)c21)NS(=O)(=O)c1cc(Cl)c(Cl)s1` [Compound #60, (Z)-4,5-dichloro-N-((2-(1-(2,4-dichlorobenzyl)-1,4-dihydropyrano[4,3-c]pyrazol-7(6H)-ylidene)-2-fluoroethyl)carbamoyl)thiophene-2-sulfonamide], the Ki in assay [1] came to 7 nM. In addition, in assay [2], the concentration for half-maximal inhibition (IC50) came out at 4 nM.
`O=C(NC/C=C1\CCCc2cnn(-c3ccc(C(F)(F)F)cc3)c21)NS(=O)(=O)c1cc(Cl)c(Cl)s1` [Compound #85, (E)-4,5-dichloro-N-((2-(1-(4-(trifluoromethyl)phenyl)-1,4,5,6-tetrahydro-7H-indazol-7-ylidene)ethyl)carbamoyl)thiophene-2-sulfonamide] yielded a Ki in assay [1] (unit nM) of 0.4 nM. In addition, the concentration for half-maximal inhibition (IC50) in assay [2] was 4 nM.
In turn, `O=C(CC/C=C1\CCCc2cnn(Cc3ccc(Cl)cc3Cl)c21)NS(=O)(=O)c1cc(Cl)c(Cl)s1` [Compound #8, (E)-4-(1-(2,4-dichlorobenzyl)-1,4,5,6-tetrahydro-7H-indazol-7-ylidene)-N-((4,5-dichlorothiophen-2-yl)sulfonyl)butanamide] had a Ki in assay [1] (unit nM) of 0.1 nM. The IC50 in assay [2] stood at 2 nM.
As to `O=C(NC/C(F)=C1\CCCCc2cnn(Cc3ccc(Cl)cc3Cl)c21)NS(=O)(=O)c1cc(Cl)c(Cl)s1` [Compound #120, (Z)-4,5-dichloro-N-((2-(1-(2,4-dichlorobenzyl)-4,5,6,7-tetrahydrocyclohepta[c]pyrazol-8(1H)-ylidene)-2-fluoroethyl)carbamoyl)thiophene-2-sulfonamide], the Ki in assay [1] came out at 10 nM. Further, the IC50 in assay [2] was 12 nM.
The like results for `O=C(NC/C=C1\CCCc2cnn(Cc3ccc4ccccc4c3)c21)NS(=O)(=O)c1cc(Cl)c(Cl)s1` [Compound #88, (E)-4,5-dichloro-N-((2-(1-(naphthalen-2-ylmethyl)-1,4,5,6-tetrahydro-7H-indazol-7-ylidene)ethyl)carbamoyl)thiophene-2-sulfonamide] were, in that order, 104 nM and 554 nM.
For `CC(C)Cn1ncc2c1/C(=C/CNC(=O)NS(=O)(=O)c1ccc(Cl)cc1)CCC2` [Compound #80, (E)-4-chloro-N-((2-(1-isobutyl-1,4,5,6-tetrahydro-7H-indazol-7-ylidene)ethyl)carbamoyl)benzenesulfonamide], in assay [1], affinity was put at a Ki of 920 nM. In addition, the half-maximal inhibitory concentration (IC50) in assay [2] was 4400 nM.
The matching figures for `O=C(NC/C=C1\CCCc2cnn(-c3ncc(Br)cn3)c21)NS(=O)(=O)c1ccc(Cl)cc1` [Compound #94, (E)-N-((2-(1-(5-bromopyrimidin-2-yl)-1,4,5,6-tetrahydro-7H-indazol-7-ylidene)ethyl)carbamoyl)-4-chlorobenzenesulfonamide]: 750 nM and 11100 nM.
In turn, `COc1ccc(Cl)cc1S(=O)(=O)NC(=O)NC/C(F)=C1/CCCc2cnn(-c3ccc4ccccc4c3)c21` [Compound #106, (E)-5-chloro-N-((2-fluoro-2-(1-(naphthalen-2-yl)-1,4,5,6-tetrahydro-7H-indazol-7-ylidene)ethyl)carbamoyl)-2-methoxybenzenesulfonamide] had a Ki in assay [1] greater than 10000 nM. For the same compound, the IC50 in assay [2] is greater than 20000 nM.
In assay [1], `O=C(NC/C=C1\CCCc2cnn(-c3ccc(-c4ccccc4)cc3)c21)NS(=O)(=O)c1cc(Cl)c(Cl)s1` [Compound #99, (E)-N-((2-(1-([1,1′-biphenyl]-4-yl)-1,4,5,6-tetrahydro-7H-indazol-7-ylidene)ethyl)carbamoyl)-4,5-dichlorothiophene-2-sulfonamide] registered an inhibition constant (Ki) of 1 nM. Also, in assay [2], the IC50 was determined as 9 nM.
The compound `O=C(NC/C(F)=C1/CCCc2cnn(-c3ccc(C(F)(F)F)cc3)c21)NS(=O)(=O)c1ccc2c(c1)OCCO2` [Compound #117, (E)-N-((2-fluoro-2-(1-(4-(trifluoromethyl)phenyl)-1,4,5,6-tetrahydro-7H-indazol-7-ylidene)ethyl)carbamoyl)-2,3-dihydrobenzo[b][1,4]dioxine-6-sulfonamide] had a Ki in assay [1] greater than 10000 nM. Besides, the half-maximal inhibitory concentration (IC50) in assay [2] is greater than 20000 nM.
`O=C(NC/C=C1\CCCc2cnn(-c3cccc(C(F)(F)F)c3)c21)NS(=O)(=O)c1cc(Cl)c(Cl)s1` [Compound #92, (E)-4,5-dichloro-N-((2-(1-(3-(trifluoromethyl)phenyl)-1,4,5,6-tetrahydro-7H-indazol-7-ylidene)ethyl)carbamoyl)thiophene-2-sulfonamide] had an inhibition constant Ki in assay [1] of 17 nM. Moreover, in assay [2], the IC50 is 214 nM.
Turning to `O=C(NC/C=C1\CCCc2c(C(F)F)nn(Cc3ccc(Cl)cc3Cl)c21)NS(=O)(=O)c1ccc(Cl)cc1` [Compound #47, (E)-4-chloro-N-((2-(1-(2,4-dichlorobenzyl)-3-(difluoromethyl)-1,4,5,6-tetrahydro-7H-indazol-7-ylidene)ethyl)carbamoyl)benzenesulfonamide], in assay [1], the affinity, expressed as Ki, was 65 nM. Moreover, in assay [2], the IC50 was determined as 120 nM.
`O=C(NC/C=C1\CCCc2cnn(C3CCN(c4ccc(F)cc4)CC3)c21)NS(=O)(=O)c1ccc(Cl)cc1` [Compound #122, (E)-4-chloro-N-((2-(1-(1-(4-fluorophenyl)piperidin-4-yl)-1,4,5,6-tetrahydro-7H-indazol-7-ylidene)ethyl)carbamoyl)benzenesulfonamide] returned a Ki in assay [1] of 6 nM. Besides, the IC50 in assay [2] is 45 nM.
The like results for `Cc1nn(Cc2ccc(Cl)cc2Cl)c2c1CCC/C2=C(/F)CNC(=O)NS(=O)(=O)c1cc(Cl)c(Cl)s1` [Compound #109, (Z)-4,5-dichloro-N-((2-(1-(2,4-dichlorobenzyl)-3-methyl-1,4,5,6-tetrahydro-7H-indazol-7-ylidene)-2-fluoroethyl)carbamoyl)thiophene-2-sulfonamide] were, in that order, 7 nM and 60 nM.
On to `O=C(NC/C=C1/c2c(cnn2Cc2ccc(Cl)cc2Cl)CCC1F)NS(=O)(=O)c1ccc(Cl)cc1` (stereo not shown) [Compound #73, (Z)-4-chloro-N-((2-(1-(2,4-dichlorobenzyl)-6-fluoro-1,4,5,6-tetrahydro-7H-indazol-7-ylidene)ethyl)carbamoyl)benzenesulfonamide], for which the affinity in assay [1], expressed as Ki, was 3 nM. In assay [2], the half-maximal inhibitory concentration (IC50) worked out at 5 nM.
In assay [1], `COc1ccc(F)cc1S(=O)(=O)NC(=O)NC/C(F)=C1\CCCc2cnn(-c3ccc4ccccc4c3)c21` [Compound #113, (Z)-5-fluoro-N-((2-fluoro-2-(1-(naphthalen-2-yl)-1,4,5,6-tetrahydro-7H-indazol-7-ylidene)ethyl)carbamoyl)-2-methoxybenzenesulfonamide] gave a Ki of 4100 nM. In assay [2], the IC50 was found to be 6900 nM.
In the case of `O=C(C/C=C1\CCCc2cnn(Cc3ccc(Cl)cc3Cl)c21)NS(=O)(=O)c1nc2ccccc2s1` [Compound #21], the inhibitory constant (Ki) in assay [1] was found to be 58 nM. Further, the IC50 in assay [2] stood at 330 nM.
